Measurements: patent US8466311B2, “Neuroprotective compositions and methods” (Sanford-Burnham Medical Research Institute, priority 2006, dated 2013)

Tests used:
HO-1 promoter [1] = assay: HO-1 promoter luciferase reporter (pHO15luc) in HT22 cells; assay type: cell-based, mouse
Protocol: Cell cultures, transfection, and glutathione (GSH) measurement. […] Transfection was performed with Lipofectamine 2000 (Invitrogen). In the reporter gene assays, firefly luciferase activity in cell lysates was measured with a luminometer (Promega). Total GSH (reduced and oxidized) was determined as described (Lee et al., Biochem. Biophys. Res. Commun. 280:286-292, 2001).
NEPPs activate HO-1 transcription through the ARE. We next studied activation of the HO-1 promoter and ARE by NEPP. In order to examine the induction of HO-1 protein by NEPP11, various concentrations of NEPP11 were added to HT22 cells for 24 h. Thereafter, cell lysates (10 μg per lane) were subjected to SDS-PAGE and probed with anti-HO-1 or anti-β-actin. […] Next, we studied transcriptional activation of the HO-1 gene by NEPP11 in HT22 cells, a differentiated neuronal cell line, transfected with pHO15luc, a luciferase reporter construct under the control of a 15-kb mouse HO-1 promoter fragment. HT22 cells were transfected with reporter cDNAs (1 μg per well), and various concentrations of NEPP11 were added to the cultures. After a 24-h incubation, cell lysates were subjected to luciferase reporter assays. […] Gong et al. (Antioxid. Redox Signal. 4:249-257, 2002) had identified two enhancer regions, E1 and E2, located upstream of the transcriptin initiation site by approximately 4 and 10 kb that contained the elements responsible for activation by 15-deoxy-Δ^12,14-PGJ2 (Gong et al., Antioxid. Redox Signal. 4:249-257, 2002). To determine the role of the E1 and E2 enhancers, we expressed a mutant promoter construct lacking both enhancer sites [pHO15lucΔ(E1+E2)]. The mutant was only minimally responsive to NEPP11 (1.8-fold induction).
Because the E1 and E2 regions also contain other enhancer elements, we tested the effects of NEPP11 (2 μM) on the expression of luciferase activity derived from these elements, including the cAMP-responsive element (CRE; p3xCREluc), AP-1 binding site (p3xAP1luc), NF-κB binding site (p3xNF-κBluc), NFAT-binding site (p3xNFATluc), ETS-binding site (p3xETSluc), and MEF2-binding site (p3xMEF2luc).

HO-1 promoter [2] = assay: HO-1 promoter luciferase reporter in cortical cultures; assay type: cell-based, rat
Protocol: Next, transcriptional activation of the HO-1 promoter by NEPP was examined by reporter gene assays in primary neurons. Cortical cultures were transfected with reporter cDNAs (1 μg per well), and 0.7 μM NEPP11 was added to the cultures. After a 24 h incubation, cell lysates were subjected to luciferase reporter assays. […] If the Keap1/Nrf2 pathway, indeed, mediates activation of the HO-1 promoter by NEPP11, mutant Nrf2 protein should inhibit this activation. […] Moreover, the selective activation in neurons may explain the relatively small amplitude of total HO-1 activation seen in the mixed neuronal/glial culture system in which glia predominate.

## COC(=O)CCCCC/C=C1/C(=O)C=C[C@H]1CCCCCCc1ccc(C)cc1 [NEPP11]
HO-1 promoter [1]; HT22 cells, 24 h, dose-dependent
  expression of HO-1 transcription (pHO15luc luciferase activity): more than five-fold
HO-1 promoter [1]; HT22 cells, construct lacking E1 and E2 enhancers
  induction of mutant promoter pHO15lucΔ(E1+E2): 1.8 fold
HO-1 promoter [1]; NEPP11 2 μM, used for comparison
  induction of pHO15luc reporter activity: greater than five-fold
HO-1 promoter [1]; not depressed by wild-type pKeap1
  activation of pHO15luc with co-transfection of pKeap1(C151S): significantly depressed
HO-1 promoter [2]; NEPP11 0.7 μM, 24 h
  activity of the HO-1 promoter: significantly increased
HO-1 promoter [2]; NEPP11, pNrf-GFP did not affect activation
  HO-1 promoter activation with cotransfection of pNrf2(S40A)-GFP: almost completely knocked down
